One experiment addresses T1, human σ1 receptor (Homo sapiens, UniProt Q99720).
T1 construct: expressed in transfected cells; host or cells: HEK-293
The experiment can be described thus: Human σ1 receptor radioligand assay ([3H](+)-pentazocine). The following applies: transfected HEK-293 membranes, 5 nM [3H](+)-pentazocine, 37° C., 120 minutes; read-out: Binding σ-[…] (binding to σ1-receptor expressed as Ki). It is filed as binding. The method, boiled down:
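Binding used [3H](+)-pentazocine, 120 min at 37° C, with non-specific binding defined by 10 μM haloperidol. Bound radioligand was collected by filtration, washed with ice-cold 10 mM Tris-HCl pH 7.4 and counted by scintillation.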

The target in a further experiment is T2, human σ2/TMEM97 receptor (Homo sapiens, UniProt Q5BJF2).
T2 construct: expressed in transfected cells; host or cells: HEK-293
T2 sequence (Q5BJF2 whole entry): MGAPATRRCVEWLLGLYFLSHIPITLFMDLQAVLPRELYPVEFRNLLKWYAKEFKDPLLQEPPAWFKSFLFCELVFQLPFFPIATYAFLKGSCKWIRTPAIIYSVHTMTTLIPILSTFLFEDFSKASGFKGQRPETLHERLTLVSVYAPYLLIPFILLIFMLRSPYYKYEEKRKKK
The experiment can be described thus: Binding assay to human σ2/TMEM97 receptor ([3H]-DTG). The essentials:
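Membranes from transfected HEK-293 cells incubated with 10 nM [3H]-DTG in 50 mM Tris-HCl pH 8.0, 120 min at 25 °C; non-specific binding defined with 10 μM haloperidol. Bound radioactivity counted after filtration; compounds tested as % inhibition at 1 or 10 μM or at five concentrations for Ki.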

[1] abbreviates: transfected HEK-293 membranes, 10 nM [3H]-DTG, 25° C., 120 minutes, read-out: Binding σ-[…] (binding to σ2-receptor expressed as Ki).

Where two headings read alike, the source gives them in different places.

T1 sequence (Q99720 whole entry): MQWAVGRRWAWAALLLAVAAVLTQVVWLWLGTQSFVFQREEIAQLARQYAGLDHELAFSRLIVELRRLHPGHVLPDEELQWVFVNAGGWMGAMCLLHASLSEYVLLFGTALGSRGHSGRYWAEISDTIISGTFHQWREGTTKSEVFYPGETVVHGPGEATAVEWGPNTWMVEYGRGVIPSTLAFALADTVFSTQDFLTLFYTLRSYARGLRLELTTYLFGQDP

As for `CN(Cc1cccc(C#N)c1)C1CCN(C(=O)N2CC(C)(C)c3ncccc32)CC1` [Example 83, 3-(((1-(3,3-dimethyl-2,3-dihydro-1H-pyrrolo[3,2-b]pyridine-1-carbonyl)piperidin-4-yl)(methyl)amino)methyl)benzonitrile], the values for the Ki at human σ1 receptor and at human σ2/TMEM97 receptor (setting [1]) were > 1000 nM and 100 to 500 nM, respectively.
As for `CN(Cc1ccc(C#N)cc1)C1CCN(C(=O)N2CC(C)(C)c3ncccc32)CC1` [Example 84, 4-(((1-(3,3-dimethyl-2,3-dihydro-1H-pyrrolo[3,2-b]pyridine-1-carbonyl)piperidin-4-yl)(methyl)amino)methyl)benzonitrile], the results for the Ki at human σ1 receptor and at human σ2/TMEM97 receptor (setting [1]) were 100 to 500 nM and < 100 nM, respectively.
In the case of `CN(Cc1cccc(F)c1)C1CCN(C(=O)N2CC(C)(C)c3ncccc32)CC1` [Example 85, (3,3-dimethyl-2,3-dihydro-1H-pyrrolo[3,2-b]pyridin-1-yl)(4-((3-fluorobenzyl)(methyl)amino)piperidin-1-yl)methanone], the Ki (as a rule, a measure of affinity in units of concentration, obtained from inhibition or displacement) on human σ1 receptor is 500 to 1000 nM; on human σ2/TMEM97 receptor (setting [1]) it was 100 to 500 nM.
As for `CN(Cc1ccc(F)cc1)C1CCN(C(=O)N2CC(C)(C)c3ncccc32)CC1` [Example 86, (3,3-dimethyl-2,3-dihydro-1H-pyrrolo[3,2-b]pyridin-1-yl)(4-((4-fluorobenzyl)(methyl)amino)piperidin-1-yl)methanone], the Ki on human σ1 receptor is 500 to 1000 nM; on human σ2/TMEM97 receptor (setting [1]), < 100 nM.
With `CN(Cc1ccc(C#N)c(F)c1)C1CCN(C(=O)N2CC(C)(C)c3ncccc32)CC1` [Example 87, 4-(((1-(3,3-dimethyl-2,3-dihydro-1H-pyrrolo[3,2-b]pyridine-1-carbonyl)piperidin-4-yl)(methyl)amino)methyl)-2-fluorobenzonitrile], the inhibition constant Ki on human σ1 receptor was 500 to 1000 nM; on human σ2/TMEM97 receptor (setting [1]), < 100 nM.
As for `CC1(C)CN(C(=O)NC2CN(Cc3ccccc3)C2)c2cccnc21` [Example 88, N-(1-benzylazetidin-3-yl)-3,3-dimethyl-2,3-dihydro-1H-pyrrolo[3,2-b]pyridine-1-carboxamide], the Ki is 100 to 500 nM on human σ1 receptor and > 1000 nM at human σ2/TMEM97 receptor (setting [1]).
For `CC1(C)CN(C(=O)N2CCC3(CCN(Cc4ccccc4)CC3)C2)c2cccnc21` [Example 89, (8-benzyl-2,8-diazaspiro[4.5]decan-2-yl)(3,3-dimethyl-2,3-dihydro-1H-pyrrolo[3,2-b]pyridin-1-yl)methanone] the same measures were < 100 nM and < 100 nM.
In the same order, the values of `CC1(C)CN(C(=O)N2CCC3(CCN(Cc4cccc(C#N)c4)CC3)C2)c2cccnc21` [Example 90, 3-((2-(3,3-dimethyl-2,3-dihydro-1H-pyrrolo[3,2-b]pyridine-1-carbonyl)-2,8-diazaspiro[4.5]decan-8-yl)methyl)benzonitrile] are 100 to 500 nM and < 100 nM.
Regarding `Cc1ccc2c(n1)C(C)(C)CN2C(=O)N1CCC2(CCN(CCc3ccccc3)CC2)C1` [Example 91, (8-phenethyl-2,8-diazaspiro[4.5]decan-2-yl)(3,3,5-trimethyl-2,3-dihydro-1H-pyrrolo[3,2-b]pyridin-1-yl)methanone], the Ki was 500 to 1000 nM on human σ1 receptor and < 100 nM at human σ2/TMEM97 receptor.
Regarding `Cc1ccc2c(n1)C(C)(C)CN2C(=O)N1CCC2(CCN(Cc3cccc(C#N)c3)CC2)C1` [Example 92, 3-((2-(3,3,5-trimethyl-2,3-dihydro-1H-pyrrolo[3,2-b]pyridine-1-carbonyl)-2,8-diazaspiro[4.5]decan-8-yl)methyl)benzonitrile], the Ki at human σ1 receptor is > 1000 nM; on human σ2/TMEM97 receptor (setting [1]), < 100 nM.
Consider `Cc1ccc2c(n1)C(C)(C)CN2C(=O)N1CCC2(CC1)CN(Cc1ccccc1)C2` [Example 93, (2-benzyl-2,7-diazaspiro[3.5]nonan-7-yl)(3,3,5-trimethyl-2,3-dihydro-1H-pyrrolo[3,2-b]pyridin-1-yl)methanone], for which the Ki on human σ1 receptor and at human σ2/TMEM97 receptor (setting [1]) was 100 to 500 nM each time.
As for `Cc1ccc2c(n1)C(C)(C)CN2C(=O)N1CCC2(CCN(Cc3ccccn3)CC2)C1` [Example 94, (8-(pyridin-2-ylmethyl)-2,8-diazaspiro[4.5]decan-2-yl)(3,3,5-trimethyl-2,3-dihydro-1H-pyrrolo[3,2-b]pyridin-1-yl)methanone], the values for the Ki on human σ1 receptor and at human σ2/TMEM97 receptor (setting [1]) were > 1000 nM and 100 to 500 nM, respectively.
Turning to `COc1cccc(CN2CCC3(CC2)CCN(C(=O)N2CC(C)(C)c4nc(C)ccc42)C3)c1` [Example 95, (8-(3-methoxybenzyl)-2,8-diazaspiro[4.5]decan-2-yl)(3,3,5-trimethyl-2,3-dihydro-1H-pyrrolo[3,2-b]pyridin-1-yl)methanone], the Ki was > 1000 nM on human σ1 receptor and < 100 nM on human σ2/TMEM97 receptor (setting [1]).
Turning to `Cc1ccc2c(n1)C(C)(C)CN2C(=O)N1CCC2(CCN(C(C)c3ccccc3)CC2)C1` (stereo not drawn) [Example 96, (8-(1-phenylethyl)-2,8-diazaspiro[4.5]decan-2-yl)(3,3,5-trimethyl-2,3-dihydro-1H-pyrrolo[3,2-b]pyridin-1-yl)methanone], the Ki at human σ1 receptor and on human σ2/TMEM97 receptor (setting [1]) was 100 to 500 nM each time.
With `O=C(N1CC[C@H](NCCc2ccccc2)C1)N1CCc2ncccc21` [Example 97, (S)-(2,3-dihydro-1H-pyrrolo[3,2-b]pyridin-1-yl)(3-(phenethylamino)pyrrolidin-1-yl)methanone], the results for the Ki on human σ1 receptor and at human σ2/TMEM97 receptor (setting [1]) were 500 to 1000 nM and > 1000 nM, respectively.
On to `Cc1ccc2c(n1)C(C)(C)CN2C(=O)N1CCC2(CCN(Cc3cccnc3)CC2)C1` [Example 98, (8-(pyridin-3-ylmethyl)-2,8-diazaspiro[4.5]decan-2-yl)(3,3,5-trimethyl-2,3-dihydro-1H-pyrrolo[3,2-b]pyridin-1-yl)methanone], for which the values for the Ki at human σ1 receptor and at human σ2/TMEM97 receptor (setting [1]) were > 1000 nM and < 100 nM, respectively.
For `Cc1ccc2c(n1)C(C)(C)CN2C(=O)N1CCC2(CCN(Cc3ccncc3)CC2)C1` [Example 99, (8-(pyridin-4-ylmethyl)-2,8-diazaspiro[4.5]decan-2-yl)(3,3,5-trimethyl-2,3-dihydro-1H-pyrrolo[3,2-b]pyridin-1-yl)methanone] the same measures were > 1000 nM and < 100 nM.
For `Cc1ccc2c(n1)C(C)(C)CN2C(=O)N1CCC2(CCN(CCC(C)C)CC2)C1` [Example 100, (8-isopentyl-2,8-diazaspiro[4.5]decan-2-yl)(3,3,5-trimethyl-2,3-dihydro-1H-pyrrolo[3,2-b]pyridin-1-yl)methanone], the Ki at human σ1 receptor was 500 to 1000 nM; at human σ2/TMEM97 receptor (setting [1]) it was < 100 nM.
As to `O=C(N1CCC[C@H](NCCc2ccccc2)C1)N1CCc2ncccc21` [Example 101, (S)-(2,3-dihydro-1H-pyrrolo[3,2-b]pyridin-1-yl)(3-(phenethylamino)piperidin-1-yl)methanone], the figures for the Ki at human σ1 receptor and at human σ2/TMEM97 receptor (setting [1]) were > 1000 nM and 100 to 500 nM, respectively.
In the same order, the values of `Cc1ccc2c(n1)C(C)(C)CN2C(=O)N1CCC2(CCN(Cc3cccc(S(C)(=O)=O)c3)CC2)C1` [Example 102, (8-(3-(methylsulfonyl)benzyl)-2,8-diazaspiro[4.5]decan-2-yl)(3,3,5-trimethyl-2,3-dihydro-1H-pyrrolo[3,2-b]pyridin-1-yl)methanone] are > 1000 nM and < 100 nM.
As for `COc1ccc(CN2CCC3(CC2)CCN(C(=O)N2CC(C)(C)c4nc(C)ccc42)C3)cc1` [Example 103, (8-(4-methoxybenzyl)-2,8-diazaspiro[4.5]decan-2-yl)(3,3,5-trimethyl-2,3-dihydro-1H-pyrrolo[3,2-b]pyridin-1-yl)methanone], the values for the Ki on human σ1 receptor and on human σ2/TMEM97 receptor (setting [1]) were 100 to 500 nM and < 100 nM, respectively.
Regarding `CC1(C)CN(C(=O)NC2CC3(CCN(Cc4ccccc4)CC3)C2)c2cccnc21` [Example 104, N-(7-benzyl-7-azaspiro[3.5]nonan-2-yl)-3,3-dimethyl-2,3-dihydro-1H-pyrrolo[3,2-b]pyridine-1-carboxamide], the Ki on human σ1 receptor and on human σ2/TMEM97 receptor (setting [1]) was 100 to 500 nM in each case.
On to `Cc1ccc2c(n1)C(C)(C)CN2C(=O)N1CCC2(CCN(CC3CCOCC3)CC2)C1` [Example 105, (8-((tetrahydro-2H-pyran-4-yl)methyl)-2,8-diazaspiro[4.5]decan-2-yl)(3,3,5-trimethyl-2,3-dihydro-1H-pyrrolo[3,2-t]pyridin-1-yl)methanone], for which the Ki was 500 to 1000 nM at human σ1 receptor and < 100 nM on human σ2/TMEM97 receptor (setting [1]).
For the compound `CC(C)CCN1CCC(CNC(=O)N2CC(C)(C)c3ncccc32)CC1` [Example 106, N-((1-isopentylpiperidin-4-yl)methyl)-3,3-dimethyl-2,3-dihydro-1H-pyrrolo[3,2-b]pyridine-1-carboxamide], the values for the Ki on human σ1 receptor and at human σ2/TMEM97 receptor (setting [1]) were 500 to 1000 nM and 100 to 500 nM, respectively.
With `Cc1ccc2c(n1)C(C)(C)CN2C(=O)N1CCC2(CCN(Cc3ccc(F)c(C#N)c3)CC2)C1` [Example 107, 2-fluoro-5-((2-(3,3,5-trimethyl-2,3-dihydro-1H-pyrrolo[3,2-b]pyridine-1-carbonyl)-2,8-diazaspiro[4.5]decan-8-yl)methyl)benzonitrile], the Ki on human σ1 receptor was > 1000 nM; at human σ2/TMEM97 receptor (setting [1]) it was < 100 nM.
For `Cc1ccc2c(n1)C(C)(C)CN2C(=O)N1CCC2(CCN(CCC3CCOCC3)CC2)C1` [Example 108, (8-(2-(tetrahydro-2H-pyran-4-yl)ethyl)-2,8-diazaspiro[4.5]decan-2-yl)(3,3,5-trimethyl-2,3-dihydro-1H-pyrrolo[3,2-t]pyridin-1-yl)methanone], the Ki at human σ1 receptor was > 1000 nM; on human σ2/TMEM97 receptor (setting [1]) it was < 100 nM.
For `CC(C)(C)CCN1CCC(CNC(=O)N2CC(C)(C)c3ncccc32)CC1` [Example 109, N-((1-(3,3-dimethylbutyl)piperidin-4-yl)methyl)-3,3-dimethyl-2,3-dihydro-1H-pyrrolo[3,2-b]pyridine-1-carboxamide], the Ki is 100 to 500 nM at human σ1 receptor and < 100 nM at human σ2/TMEM97 receptor (setting [1]).

The record behind these values is patent US20240174671A1, “New 2,3-Dihydro-1H-pyrrolo[3,2-b]pyridine Derivatives as Sigma Ligands” (ACONDICIONAMIENTO TARRASENSE, priority 2021, published 2024).
